Results reported in patent US8258098B2, “Antitumoral treatments” (Pharma Mar, S.A., priority 2006, dated 2012).

Assays:
PC3 cells = assay: MTS cytotoxicity assay, 72 hours, single agents and combinations with Aplidine; type: cell-based; conditions: Homo sapiens, PC-3, PC3, 72 hours drug exposure, read-out: IC50 (Molar)
Method: (§1) Day before plating cells all cultures were fed with fresh, complete growth media. On the harvest (plating) day cells were counted by Trypan Blue exclusion staining method (basic cell culture). Cells were harvested and seeded in 96 well microtiter plates at 10,000 cells per well in 190 μL of media and incubated for 24 hours to allow the cells to attach before drug addition. Cells were treated with the drugs and the cytotoxic effect was measured by the MTS Assay (Tetrazolium), which is a colorimetric method for determining the number of viable cells. After the 72 hours of incubation with drug, 25 μL of MTS+PMS solution was added to each microtiter well and incubated for 4 hours at 37° C. Plates were then removed from incubator and placed on plate shaker for 5 minutes (covered with aluminium foil for protection from light). Optical densities were read at 490 nm on spectrophotometer plate reader.
(§2) The microtiter plates were incubated for 72 hrs, at 5% CO2 and 37° C. The cytotoxic effect was measured by MTS Assay. Optical densities read at 490 nm. Normalized data was plotted and interpreted as described. Data was analysed as: • 1. Prism (Graphpad) software program was used to normalized the data to control values (100%=cell growth in the absence of agent (drug); 0%=blank control). • 2. Data normalized were plotted as scatter plots.
(§3) Conversely, antagonism was concluded when inhibition was lower than both maxima. […] Statistical significance was assessed by performing a student's t-test on the inhibition at each dose ratio versus the inhibition at the maximum for each drug.
(§4) As a visual aid, response values were plotted on a scatter plot with dose ratios given on the x-axis and % response values on the y-axis. […] In cases where response values at the two endpoints were approximately equivalent, points lying above or below this predicted line of additivity could be interpreted as representing antagonistic or synergistic drug interaction, respectively.

MX1 cells = assay: as above; type: cell-based; conditions: Homo sapiens, MX1, 72 hours drug exposure, read-out: IC50 (Molar)
Method: as §1, §2, §3, §4

HL60 cells = assay: as above; type: cell-based; conditions: Homo sapiens, HL-60, HL60, 72 hours drug exposure, read-out: IC50 (Molar)
Method: as §1, §2, §3, §4

HT29 cells = assay: as above; type: cell-based; conditions: Homo sapiens, HT-29, HT29, 72 hours drug exposure, read-out: IC50 (Molar)
Method: as §1, §2, §3, §4

A549 cells = assay: as above; type: cell-based; conditions: Homo sapiens, A549, 72 hours drug exposure, read-out: IC50 (Molar)
Method: as §1, §2, §3, §4

MOLT3 cells = assay: as above; type: cell-based; conditions: Homo sapiens, MOLT-3, MOLT3, 72 hours drug exposure, read-out: IC50 (Molar)
Method: as §1, §2, §3, §4

[1] = test system: MRI-H187 melanoma tumor xenografts; assay: Net tumor volume in tumor xenografts; type: in vivo, female athymic mice; conditions: Aplidine 50 μg/kg, DTIC 40 mg/kg, Carboplatin 25 mg/kg, i.p.
Excerpt: (§5) Athymic nude female mice were received from Harlan Sprague Dawley, Madison, Wis. at 4-5 weeks of age. Mice were acclimated to the laboratory for at least one week prior to implantation of tumor. Animals were housed in static cages with food and water allowed ad libitum. Experimental animals were implanted with either tumor fragments derived from transplantation established human tumors or with cells obtain directly from in vitro culture. Tumors were implanted subcutaneously on the right flank on Day 0.
(§6) Tumor size measurements were recorded twice weekly beginning on day 4 or 5 using vernier calipers. The formula to calculate volume for a prolate ellipsoid was used to estimate tumor volume from 2-dimensional tumor measurements: tumor volume (mm^3)=(length×width^2)÷2. Assuming unit density, volume was converted to weight (i.e., 1 mm^3=1 mg). […] Treatments were initiated and administered on an individual body weight basis. A dose range finding study was performed on each tumor model to determine the appropriate dose level of each compound used in the combination studies.

[2] = test system: LOX-IMVI melanoma tumor xenografts; assay: Net tumor volume in tumor xenografts; type: in vivo, female athymic mice; conditions: DTIC 30 mg/kg, Carboplatin 25 mg/kg, i.p.
Excerpt: as §5, §6

SKBR3 cells = assay: MTS cytotoxicity assay, 72 hours, single agents and combinations with Aplidine; type: cell-based; conditions: Homo sapiens, SK-BR-3, SKBR3, 72 hours drug exposure, read-out: IC50 (Molar)
Method: as §1, §2, §3, §4

[3] = test system: CaKi-1 renal tumor xenografts; assay: Net tumor volume in tumor xenografts; type: in vivo, female athymic mice; conditions: Aplidine 50 μg/kg i.p., Avastin 5.0 mg/kg i.p., IL-2 2 μg/mouse i.p., INF-α 200,000 U/mouse s.c.
Excerpt: as §5, §6

[4] = test system: MRI-H121 renal tumor xenografts; assay: Net tumor volume in tumor xenografts; type: in vivo, female athymic mice; conditions: Aplidine 25 μg/kg i.p., Avastin […] i.p., IL-2 1 μg/mouse i.p., INF-α 200,000 U/mouse s.c.
Excerpt: as §5, §6

`O=c1[nH]cc(F)c(=O)[nH]1` [5-FU, 5-fluorouracil] was tested, and the IC50 (PC3 cells) was 220 µM, the IC50 (MX1 cells) was > 100 µM and the IC50 (HL60 cells) was 1200 µM. The IC50 (HT29 cells) was 880 µM, the IC50 (A549 cells) was 1400 µM and the IC50 (MOLT3 cells) was 11 µM.

With `CN(C)/N=N/c1[nH]cnc1C(N)=O` [DTIC, dacarbazine] the “Net Tumor Volume ± S.E.M.” value ([1]; MRI-H187, DAY 20) was 148 ± 14 mg, the “Net Tumor Volume ± S.E.M.” value ([1]; MRI-H187, DAY 24) was 264 ± 60 mg and the “Net Tumor Volume ± S.E.M.” value ([1]; MRI-H187, DAY 27) was 377 ± 98 mg. The “Net Tumor Volume ± S.E.M.” value ([1]; MRI-H187, DAY 31) was 558 ± 152 mg, the “Net Tumor Volume ± S.E.M.” value ([1]; MRI-H187, DAY 34) was 681 ± 187 mg and the “Net Tumor Volume ± S.E.M.” value ([1]; MRI-H187, DAY 38) was 927 ± 274 mg. The “Net Tumor Volume ± S.E.M.” value ([1]; MRI-H187, DAY 46) was 1508 ± 427 mg, the “Net Tumor Volume ± S.E.M.” value ([1]; MRI-H187, DAY 49) was 1804 ± 507 mg and the “Net Tumor Volume ± S.E.M.” value ([1]; MRI-H187, DAY 52) was 2036 ± 525 mg. For the same compound, the “Net Tumor Volume ± S.E.M.” value ([1]; MRI-H187, DAY 55) was 2123 ± 558 mg, the “Net Tumor Volume ± S.E.M.” value ([1]; MRI-H187, DAY 59) was 2166 ± 563 mg and the “Net Tumor Volume ± S.E.M.” value ([1]; MRI-H187, DAY 62) was 2333 ± 433 mg. The “Net Tumor Volume ± S.E.M.” value ([1]; MRI-H187, DAY 66) was 2508 ± 536 mg, the “Net Tumor Volume ± S.E.M.” value ([2]; DAY 8, Aplidine 50 μg/kg) was 208 ± 25 mg and the “Net Tumor Volume ± S.E.M.” value ([2]; DAY 12, Aplidine 50 μg/kg) was 699 ± 57 mg. The “Net Tumor Volume ± S.E.M.” value ([2]; DAY 14, Aplidine 50 μg/kg) was 950 ± 57 mg and the “Net Tumor Volume ± S.E.M.” value ([2]; DAY 19, Aplidine 50 μg/kg) was 2695 ± 560 mg.

With `CC(=O)O[C@H]1C(=O)[C@@]2(C)[C@H]([C@H](OC(=O)c3ccccc3)[C@]3(O)C[C@H](OC(=O)[C@H](O)[C@@H](NC(=O)c4ccccc4)c4ccccc4)C(C)=C1C3(C)C)[C@]1(OC(C)=O)CO[C@@H]1C[C@@H]2O` [paclitaxel] the IC50 (MX1 cells) was 9.4 µM, the IC50 (HL60 cells) was 0.016 µM and the IC50 (SKBR3 cells) was > 100 µM. For the same compound, the IC50 (HT29 cells) was 0.005 µM, the IC50 (A549 cells) was 0.013 µM and the IC50 (MOLT3 cells) was 77 µM.

In the case of “Avastin ®: Bevacizumab (Avastin®), standard of care agent”, the “Net Tumor Volume ± S.E.M.” value ([3]; CaKi-1, DAY 13) is reported as 105 ± 3 mg, the “Net Tumor Volume ± S.E.M.” value ([3]; CaKi-1, DAY 15) is reported as 162 ± 14 mg and the “Net Tumor Volume ± S.E.M.” value ([3]; CaKi-1, DAY 19) is reported as 286 ± 49 mg. For the same compound, the “Net Tumor Volume ± S.E.M.” value ([3]; CaKi-1, DAY 22) was 398 ± 53 mg, the “Net Tumor Volume ± S.E.M.” value ([3]; CaKi-1, DAY 26) was 632 ± 79 mg and the “Net Tumor Volume ± S.E.M.” value ([3]; CaKi-1, DAY 29) was 811 ± 90 mg. For the same compound, the “Net Tumor Volume ± S.E.M.” value ([3]; CaKi-1, DAY 33) was 985 ± 111 mg, the “Net Tumor Volume ± S.E.M.” value ([3]; CaKi-1, DAY 36) was 1251 ± 109 mg and the “Net Tumor Volume ± S.E.M.” value ([3]; CaKi-1, DAY 41) was 1654 ± 189 mg. The “Net Tumor Volume ± S.E.M.” value ([3]; CaKi-1, DAY 47) was 2170 ± 253 mg, the “Net Tumor Volume ± S.E.M.” value ([3]; CaKi-1, DAY 50) was 2842 ± 379 mg and the “Net Tumor Volume ± S.E.M.” value ([4]; MRI-H121, DAY 11) was 106 ± 7 mg. The “Net Tumor Volume ± S.E.M.” value ([4]; MRI-H121, DAY 14) was 171 ± 16 mg, the “Net Tumor Volume ± S.E.M.” value ([4]; MRI-H121, DAY 18) was 306 ± 27 mg and the “Net Tumor Volume ± S.E.M.” value ([4]; MRI-H121, DAY 19) was 299 ± 39 mg. The “Net Tumor Volume ± S.E.M.” value ([4]; MRI-H121, DAY 21) was 365 ± 39 mg, the “Net Tumor Volume ± S.E.M.” value ([4]; MRI-H121, DAY 26) was 503 ± 57 mg and the “Net Tumor Volume ± S.E.M.” value ([4]; MRI-H121, DAY 29) was 678 ± 77 mg. For the same compound, the “Net Tumor Volume ± S.E.M.” value ([4]; MRI-H121, DAY 32) was 899 ± 93 mg, the “Net Tumor Volume ± S.E.M.” value ([4]; MRI-H121, DAY 35) was 898 ± 69 mg and the “Net Tumor Volume ± S.E.M.” value ([4]; MRI-H121, DAY 39) was 1240 ± 124 mg. The “Net Tumor Volume ± S.E.M.” value ([4]; MRI-H121, DAY 42) was 1383 ± 148 mg.
